# Data published in ChEMBL document CHEMBL1201862, “PubChem BioAssay data set” (2004).
# Calls of active or inactive are those of the source.
# Tests used:
# Assay type in all cases: functional
# H4 = experiment: Luminescence Cell-Based Dose Response HTS to Identify Activators of 5'UTR Stem-Loop Driven Prion Protein mRNA Translation in H4 Neuroglioblastoma Cells. [Related pubchem assays: 1829 (Project Summary), 1814 (Primary HTS)]; conditions: Homo sapiens
# Caspase-3 = molecular target: T1, Caspase-3 (Homo sapiens, UniProt P42574);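 note: Dose-response selectivity test against caspase-3 for candidate inhibitors of sentrin-specific proteases (SENPs)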
# T1 sequence (P42574 whole entry): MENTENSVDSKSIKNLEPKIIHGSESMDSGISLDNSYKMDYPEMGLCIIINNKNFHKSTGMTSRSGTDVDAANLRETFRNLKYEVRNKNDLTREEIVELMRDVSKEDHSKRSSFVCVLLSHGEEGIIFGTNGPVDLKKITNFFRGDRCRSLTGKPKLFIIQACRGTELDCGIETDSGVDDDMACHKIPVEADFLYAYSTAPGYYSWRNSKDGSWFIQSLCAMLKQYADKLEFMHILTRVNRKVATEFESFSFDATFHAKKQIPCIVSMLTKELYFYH
# [1] = molecular target: T2, Sentrin-specific protease 7 (Homo sapiens, UniProt Q9BQF6);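 note: Luminescence-based dose-response confirmation of ultra-high-throughput screening hits, measuring inhibition of SENP7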
# T2 sequence (Q9BQF6 whole entry): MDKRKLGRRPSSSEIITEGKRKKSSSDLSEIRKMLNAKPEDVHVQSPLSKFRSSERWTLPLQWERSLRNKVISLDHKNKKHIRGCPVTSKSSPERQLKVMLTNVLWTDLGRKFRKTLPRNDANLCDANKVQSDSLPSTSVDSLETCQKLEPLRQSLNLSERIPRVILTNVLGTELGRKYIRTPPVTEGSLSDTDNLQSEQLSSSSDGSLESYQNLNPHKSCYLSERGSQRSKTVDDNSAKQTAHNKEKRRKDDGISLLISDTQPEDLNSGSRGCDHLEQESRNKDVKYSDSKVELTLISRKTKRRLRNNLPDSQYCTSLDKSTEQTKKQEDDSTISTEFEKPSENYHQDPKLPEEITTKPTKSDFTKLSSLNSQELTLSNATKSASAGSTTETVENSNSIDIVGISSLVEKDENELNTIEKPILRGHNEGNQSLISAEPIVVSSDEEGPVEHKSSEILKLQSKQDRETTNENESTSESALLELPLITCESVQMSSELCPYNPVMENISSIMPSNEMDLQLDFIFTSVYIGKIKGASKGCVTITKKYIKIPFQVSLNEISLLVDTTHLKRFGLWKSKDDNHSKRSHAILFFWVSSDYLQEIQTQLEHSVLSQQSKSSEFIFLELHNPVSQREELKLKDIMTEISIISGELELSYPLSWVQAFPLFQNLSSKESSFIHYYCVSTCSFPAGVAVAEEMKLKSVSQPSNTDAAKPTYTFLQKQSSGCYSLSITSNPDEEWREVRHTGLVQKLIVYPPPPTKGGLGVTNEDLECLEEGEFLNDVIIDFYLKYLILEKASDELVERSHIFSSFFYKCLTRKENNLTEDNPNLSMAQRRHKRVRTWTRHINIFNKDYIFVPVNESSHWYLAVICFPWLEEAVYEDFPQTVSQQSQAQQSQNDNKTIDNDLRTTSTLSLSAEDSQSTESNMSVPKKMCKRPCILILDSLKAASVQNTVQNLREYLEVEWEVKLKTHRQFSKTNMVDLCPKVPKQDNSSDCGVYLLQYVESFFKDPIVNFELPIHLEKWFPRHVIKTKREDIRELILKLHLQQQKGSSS
# [2] = molecular target: RAC-gamma serine/threonine-protein kinase (Homo sapiens, UniProt Q9Y243)
# [3] = molecular target: Serine/threonine-protein kinase PLK4 (Homo sapiens, UniProt O00444);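 note: PLK4 measured as one member of a kinome-wide kinase profiling panel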
# [4] = molecular target: Serine/threonine-protein kinase D2 (Homo sapiens, UniProt Q9BZL6);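 note: measured against PRKD2 as one member of a kinome-wide kinase profiling panel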
# [5] = molecular target: Serine/threonine-protein kinase Chk2 (Homo sapiens, UniProt O96017);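 note: CHEK2 entry within a kinome-wide screening panel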
# [6] = molecular target: MAP kinase-activated protein kinase 2 (Homo sapiens, UniProt P49137);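 note: measured as one member of a kinome-wide kinase panel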
# [7] = molecular target: Cell division cycle 7-related protein kinase (Homo sapiens, UniProt O00311);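 note: value obtained from a kinome-wide kinase panel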
# [8] = molecular target: Casein kinase I isoform gamma-1 (Homo sapiens, UniProt Q9HCP0);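 note: measured as the CSNK1G1 member of a kinome profiling panel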
# [9] = molecular target: MAP/microtubule affinity-regulating kinase 3 (Homo sapiens, UniProt P27448);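 note: MARK3 affinity measured as one member of a kinome panel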
# [10] = molecular target: Proto-oncogene tyrosine-protein kinase Src (Homo sapiens, UniProt P12931);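 note: SRC entry within a kinome-wide kinase profiling panel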
# Ephrin type-A receptor 2 = Ephrin type-A receptor 2 (Homo sapiens, UniProt P29317);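 note: EPHA2 tested as one member of a kinome-wide kinase panel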
# [11] = molecular target: Insulin-like growth factor 1 receptor (Homo sapiens, UniProt P08069); experiment: Navigating the Kinome. Panel member name: IGF1R
# Misshapen-like kinase 1 = Misshapen-like kinase 1 (Homo sapiens, UniProt Q8N4C8);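 note: kinome panel screen with MINK as the panel member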
# [12] = molecular target: Serine/threonine-protein kinase Nek4 (Homo sapiens, UniProt P51957)
# [13] = molecular target: Protein kinase C iota type (Homo sapiens, UniProt P41743);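 note: measured within a kinome-wide kinase panel, PRKCI as panel member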
# [14] = molecular target: Interleukin-1 receptor-associated kinase 1 (Homo sapiens, UniProt P51617);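 note: IRAK1 tested as one member of a kinome panel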
# [15] = molecular target: RAC-alpha serine/threonine-protein kinase (Homo sapiens, UniProt P31749);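 note: AKT1 affinity measured as one member of a kinome-wide kinase profiling panel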
# [16] = molecular target: Tyrosine-protein kinase Fer (Homo sapiens, UniProt P16591);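 note: FER tested as one member of a kinome panel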
# [17] = molecular target: Serine/threonine-protein kinase PLK1 (Homo sapiens, UniProt P53350);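 note: PLK1 measured as one member of a kinome-wide profiling panel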
# [18] = molecular target: Mitogen-activated protein kinase 12 (Homo sapiens, UniProt P53778);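 note: measured as one member of a kinome-wide kinase profiling panel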
# [19] = molecular target: Serine/threonine-protein kinase BRSK1 (Homo sapiens, UniProt Q8TDC3);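 note: measured within a kinome-wide kinase panel, with the target listed as KIAA1811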
# [20] = molecular target: Tyrosine-protein kinase FRK (Homo sapiens, UniProt P42685);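 note: FRK tested as one member of a kinome panel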
# [21] = molecular target: Platelet-derived growth factor receptor beta (Homo sapiens, UniProt P09619);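 note: value comes from a kinome panel, with PDGFRB tested as one panel member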
# [22] = molecular target: Mitogen-activated protein kinase 13 (Homo sapiens, UniProt O15264)
# LIM domain kinase 1 = LIM domain kinase 1 (Homo sapiens, UniProt P53667); experiment: Navigating the Kinome. Panel member name: LIMK1
# [23] = molecular target: Cyclin-dependent kinase 5 (Homo sapiens, UniProt Q00535);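 note: CDK5 measured as one member of a kinase profiling panel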
# Chain of Platelet-derived growth factor receptor beta (P09619 whole entry): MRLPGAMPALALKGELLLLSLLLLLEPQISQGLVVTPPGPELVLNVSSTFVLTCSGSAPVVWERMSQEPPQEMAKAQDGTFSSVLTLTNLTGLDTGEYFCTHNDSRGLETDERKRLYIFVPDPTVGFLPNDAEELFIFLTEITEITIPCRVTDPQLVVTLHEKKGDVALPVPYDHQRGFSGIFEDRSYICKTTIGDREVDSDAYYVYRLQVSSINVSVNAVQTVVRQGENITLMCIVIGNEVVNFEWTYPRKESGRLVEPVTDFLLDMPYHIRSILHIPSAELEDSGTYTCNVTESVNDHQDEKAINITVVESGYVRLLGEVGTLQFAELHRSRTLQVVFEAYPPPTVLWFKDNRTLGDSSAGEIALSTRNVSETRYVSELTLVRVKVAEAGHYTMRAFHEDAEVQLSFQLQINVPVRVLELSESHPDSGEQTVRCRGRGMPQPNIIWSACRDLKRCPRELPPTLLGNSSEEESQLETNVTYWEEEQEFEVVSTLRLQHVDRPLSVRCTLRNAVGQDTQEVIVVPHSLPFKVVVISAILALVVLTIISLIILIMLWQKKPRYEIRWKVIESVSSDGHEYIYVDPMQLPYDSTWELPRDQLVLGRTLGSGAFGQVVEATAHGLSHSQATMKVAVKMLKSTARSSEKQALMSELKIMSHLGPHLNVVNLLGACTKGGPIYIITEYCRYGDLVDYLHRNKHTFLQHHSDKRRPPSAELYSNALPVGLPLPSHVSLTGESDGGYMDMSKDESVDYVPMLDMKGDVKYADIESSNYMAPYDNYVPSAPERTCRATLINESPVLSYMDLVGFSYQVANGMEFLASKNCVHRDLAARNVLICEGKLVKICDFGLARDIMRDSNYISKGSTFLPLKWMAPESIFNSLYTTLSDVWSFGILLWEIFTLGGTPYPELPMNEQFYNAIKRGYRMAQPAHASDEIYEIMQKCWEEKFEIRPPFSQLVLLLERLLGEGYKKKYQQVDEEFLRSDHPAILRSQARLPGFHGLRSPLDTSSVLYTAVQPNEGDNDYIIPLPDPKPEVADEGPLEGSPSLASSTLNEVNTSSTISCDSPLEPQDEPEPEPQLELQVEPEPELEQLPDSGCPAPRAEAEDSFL
# Chain of Misshapen-like kinase 1 (Q8N4C8 whole entry): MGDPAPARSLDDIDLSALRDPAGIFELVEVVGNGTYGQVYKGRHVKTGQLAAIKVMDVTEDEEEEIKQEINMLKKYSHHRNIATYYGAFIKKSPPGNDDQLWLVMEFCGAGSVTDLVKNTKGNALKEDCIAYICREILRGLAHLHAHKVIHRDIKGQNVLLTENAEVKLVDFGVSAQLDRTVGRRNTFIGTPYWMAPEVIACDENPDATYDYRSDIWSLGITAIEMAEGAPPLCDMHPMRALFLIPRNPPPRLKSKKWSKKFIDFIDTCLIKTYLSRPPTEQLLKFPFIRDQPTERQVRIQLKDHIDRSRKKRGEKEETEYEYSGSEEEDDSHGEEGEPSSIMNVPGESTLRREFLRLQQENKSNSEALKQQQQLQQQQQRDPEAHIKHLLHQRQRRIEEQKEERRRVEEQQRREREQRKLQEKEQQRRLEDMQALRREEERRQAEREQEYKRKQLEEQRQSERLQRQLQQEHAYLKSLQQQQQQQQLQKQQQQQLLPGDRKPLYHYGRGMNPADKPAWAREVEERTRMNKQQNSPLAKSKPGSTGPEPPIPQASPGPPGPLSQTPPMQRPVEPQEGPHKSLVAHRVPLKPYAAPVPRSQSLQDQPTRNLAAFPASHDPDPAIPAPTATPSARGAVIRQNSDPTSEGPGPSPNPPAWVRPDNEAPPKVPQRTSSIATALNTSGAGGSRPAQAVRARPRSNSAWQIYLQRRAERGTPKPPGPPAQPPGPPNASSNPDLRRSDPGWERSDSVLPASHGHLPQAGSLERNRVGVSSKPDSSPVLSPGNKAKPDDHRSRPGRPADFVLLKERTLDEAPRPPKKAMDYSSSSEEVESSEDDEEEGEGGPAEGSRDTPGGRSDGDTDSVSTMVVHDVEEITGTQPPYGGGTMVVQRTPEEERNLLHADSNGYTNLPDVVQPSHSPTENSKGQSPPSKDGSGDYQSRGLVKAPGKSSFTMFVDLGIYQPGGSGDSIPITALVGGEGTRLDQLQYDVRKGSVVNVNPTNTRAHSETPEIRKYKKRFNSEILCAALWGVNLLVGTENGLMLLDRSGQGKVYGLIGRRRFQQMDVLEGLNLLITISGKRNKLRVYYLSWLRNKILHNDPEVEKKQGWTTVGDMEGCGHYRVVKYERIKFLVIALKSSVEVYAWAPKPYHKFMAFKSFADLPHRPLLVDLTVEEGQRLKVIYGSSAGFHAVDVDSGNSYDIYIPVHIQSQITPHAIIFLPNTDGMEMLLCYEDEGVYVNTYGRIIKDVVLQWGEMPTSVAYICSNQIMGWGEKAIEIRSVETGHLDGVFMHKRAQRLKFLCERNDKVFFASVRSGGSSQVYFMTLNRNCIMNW
# Chain of Serine/threonine-protein kinase PLK1 (P53350 whole entry): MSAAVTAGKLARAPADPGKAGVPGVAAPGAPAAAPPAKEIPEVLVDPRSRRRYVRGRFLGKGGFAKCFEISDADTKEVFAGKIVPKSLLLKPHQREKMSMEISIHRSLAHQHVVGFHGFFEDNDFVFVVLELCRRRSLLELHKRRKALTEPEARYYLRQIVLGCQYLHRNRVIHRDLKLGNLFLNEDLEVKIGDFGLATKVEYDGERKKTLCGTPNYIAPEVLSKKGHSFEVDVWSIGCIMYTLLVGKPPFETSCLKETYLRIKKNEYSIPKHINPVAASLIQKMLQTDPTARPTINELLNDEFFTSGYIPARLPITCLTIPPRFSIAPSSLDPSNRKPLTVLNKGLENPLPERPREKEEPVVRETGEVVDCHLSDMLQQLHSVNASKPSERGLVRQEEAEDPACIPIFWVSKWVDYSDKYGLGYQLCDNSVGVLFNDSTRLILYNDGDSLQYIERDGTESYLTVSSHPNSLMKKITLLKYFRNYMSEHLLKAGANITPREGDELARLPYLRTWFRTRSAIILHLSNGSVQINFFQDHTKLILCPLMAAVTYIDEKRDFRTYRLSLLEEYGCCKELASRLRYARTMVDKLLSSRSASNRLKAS
# Chain of Serine/threonine-protein kinase Chk2 (O96017 whole entry): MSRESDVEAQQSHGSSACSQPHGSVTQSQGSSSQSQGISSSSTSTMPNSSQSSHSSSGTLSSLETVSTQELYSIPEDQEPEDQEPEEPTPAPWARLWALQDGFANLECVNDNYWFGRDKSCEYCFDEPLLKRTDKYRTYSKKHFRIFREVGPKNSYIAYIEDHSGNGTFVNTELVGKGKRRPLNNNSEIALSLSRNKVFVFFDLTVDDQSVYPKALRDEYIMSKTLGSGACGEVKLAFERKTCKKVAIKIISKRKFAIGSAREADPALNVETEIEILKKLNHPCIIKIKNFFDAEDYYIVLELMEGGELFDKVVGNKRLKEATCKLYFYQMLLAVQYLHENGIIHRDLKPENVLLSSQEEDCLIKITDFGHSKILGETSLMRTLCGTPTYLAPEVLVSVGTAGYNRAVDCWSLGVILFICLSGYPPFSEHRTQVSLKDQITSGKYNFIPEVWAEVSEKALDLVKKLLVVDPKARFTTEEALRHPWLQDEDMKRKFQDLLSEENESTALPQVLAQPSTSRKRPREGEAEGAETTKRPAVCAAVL
# Chain of Cell division cycle 7-related protein kinase (O00311 whole entry, canonical isoform): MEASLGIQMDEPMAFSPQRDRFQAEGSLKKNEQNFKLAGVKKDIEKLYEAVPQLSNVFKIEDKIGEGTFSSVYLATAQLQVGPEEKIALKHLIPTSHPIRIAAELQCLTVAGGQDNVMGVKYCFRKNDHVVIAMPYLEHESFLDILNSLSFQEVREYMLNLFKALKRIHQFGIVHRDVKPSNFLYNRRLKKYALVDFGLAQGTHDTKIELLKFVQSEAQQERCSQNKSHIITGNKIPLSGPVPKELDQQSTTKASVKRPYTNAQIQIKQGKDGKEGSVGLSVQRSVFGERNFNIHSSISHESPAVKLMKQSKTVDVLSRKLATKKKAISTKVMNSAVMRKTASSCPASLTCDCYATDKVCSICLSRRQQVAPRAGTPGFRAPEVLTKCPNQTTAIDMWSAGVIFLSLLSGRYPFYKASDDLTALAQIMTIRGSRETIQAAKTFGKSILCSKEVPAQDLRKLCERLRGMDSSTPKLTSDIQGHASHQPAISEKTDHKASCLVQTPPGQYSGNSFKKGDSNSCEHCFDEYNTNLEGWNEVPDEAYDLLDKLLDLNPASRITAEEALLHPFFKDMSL
# Chain of LIM domain kinase 1 (P53667 whole entry, the tested form may be a part): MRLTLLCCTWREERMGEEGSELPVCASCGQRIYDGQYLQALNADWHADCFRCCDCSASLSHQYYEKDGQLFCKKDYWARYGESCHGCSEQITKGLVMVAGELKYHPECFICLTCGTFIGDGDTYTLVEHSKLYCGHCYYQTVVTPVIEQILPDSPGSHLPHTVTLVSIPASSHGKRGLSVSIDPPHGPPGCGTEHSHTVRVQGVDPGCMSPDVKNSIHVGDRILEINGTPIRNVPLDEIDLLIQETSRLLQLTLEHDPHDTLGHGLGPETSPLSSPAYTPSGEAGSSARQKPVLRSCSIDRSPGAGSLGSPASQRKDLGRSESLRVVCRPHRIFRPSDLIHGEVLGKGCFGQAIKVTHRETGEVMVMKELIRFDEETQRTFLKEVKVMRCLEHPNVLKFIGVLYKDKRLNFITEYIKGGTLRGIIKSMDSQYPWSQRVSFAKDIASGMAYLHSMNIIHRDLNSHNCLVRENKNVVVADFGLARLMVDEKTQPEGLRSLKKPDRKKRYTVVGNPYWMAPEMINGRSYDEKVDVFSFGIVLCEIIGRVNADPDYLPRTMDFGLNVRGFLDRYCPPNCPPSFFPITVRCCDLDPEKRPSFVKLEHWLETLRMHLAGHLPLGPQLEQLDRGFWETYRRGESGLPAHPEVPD
smiles,measurement,setting,value
O=C1C2=[N+]([O-])[C@H]3CCCC[C@H]3[N+]([O-])=C2c2ccccc21,EC50,H4,23500 nM (active)
same,IC50,Caspase-3,15400 nM (active)
same,IC50,[1],16800 nM (active)
NC1CCC(Nc2nccc(-c3c[nH]c4ncccc34)n2)CC1 (stereo not drawn),Ki,[2],631 nM (active)
same,Ki,[3],> 3980 nM (inactive)
same,Ki,[4],25.1 nM (active)
same,Ki,[5],> 1580 nM (inactive)
same,Ki,[6],794 nM (active)
same,Ki,[7],5.01 nM (active)
same,Ki,[8],100 nM (active)
same,Ki,[9],50.1 nM (active)
same,Ki,[10],> 2000 nM (inactive)
same,Ki,Ephrin type-A receptor 2,> 3160 nM (inactive)
same,Ki,[11],> 2000 nM (inactive)
same,Ki,Misshapen-like kinase 1,251 nM (active)
same,Ki,[12],2000 nM (active)
same,Ki,[13],31.6 nM (active)
same,Ki,[14],126 nM (active)
same,Ki,[15],1260 nM (active)
same,Ki,[16],1000 nM (active)
same,Ki,[17],> 7940 nM (inactive)
same,Ki,[18],794 nM (active)
same,Ki,[19],5010 nM (active)
same,Ki,[20],501 nM (active)
OCc1cc(-c2ccc3[nH]ncc3c2)on1,Ki,[21],50100 nM (active)
COC(C(=O)N1Cc2[nH]nc(NC(=O)c3ccc(N4CCN(C)CC4)cc3)c2C1)c1ccccc1 (stereo not drawn),Ki,[22],> 7940 nM (inactive)
CC(C)(O)c1cn(-c2ccc3[nH]ncc3c2)nn1,Ki,LIM domain kinase 1,15800 nM (active)
same,Ki,[23],5010 nM (active)
